Assays:
[1] = Dose-limiting toxicities, MTD and RP2D in dose escalation; type: in vivo
Method: During dose escalation, treatment was initiated on day 1 in the fasting state in cohorts starting at a dose of 20 mg orally QD, escalating in subsequent cohorts to planned doses of 50–600 mg. For all cohorts, treatment was omitted on day 2, was administered on day 3 after a moderate fat breakfast, and was administered from day 4 in the fasting state. Dose escalation proceeded based on the occurrence of DLT together with target saturation by ^18F-FES PET/CT scans[45] and pharmacokinetic parameters during the first 28-day cycle, and according to a 3 + 3 design. […] During dose expansion, patients were treated at the RP2D. Patients were treated until disease progression, unacceptable toxicity, withdrawal of patient consent, or other reasons determined by the investigator (poor compliance with the protocol or intercurrent illness). […]
Analysis populations and associated statistical methods. […] Results were analyzed using descriptive statistics. […]

Ki67 = assay: Paired tumor biopsy IHC, Ki67 positive cells; type: in vivo, human; conditions: cycle 2, day 28; n = 7; range −30 to +30%
Method: Staining was evaluated in tumor cells only.
Results were analyzed using descriptive statistics.

**Q.** Which “maximum tolerated dose (MTD)” value ([1]; Part A, 20-600 mg QD) does the source give for O=C(O)c1ccc2c(c1)CCCC(c1ccc(Cl)cc1Cl)=C2c1ccc(O[C@H]2CCN(CCCF)C2)cc1 [amcenestrant, 6-(2,4-Dichlorophenyl)−5-[4-[(3S)−1-(3-fluoropropyl)pyrrolidin-3-yl]oxyphenyl]−8,9-dihydro-7H-benzo[7]annulene-2-carboxylic acid] here?
**A.** not reached

**Q.** And the dose-limiting toxicities ([1]; in vivo)?
**A.** No dose-limiting toxicities occurred

**Q.** And the “median change from screening in percentage of Ki67 positive cells” value (Ki67)?
**A.** −8%

Reference: publication PMC9284491 (Nature Communications, 2022)
